{"source": "patent US9468593B2", "about": "“Oral composition” (KABUSHIKI KAISHA SANGI, priority 2012, dated 2016)", "assay": "Test for liquid permeation through dentinal tubules (Pashley's protocol, split chamber device)", "parameters": "species or system human", "conditions": "component blended singly", "procedure": "A healthy human evulsion tooth was used to cut the tooth into sections in such a manner that dentin and dentinal tubules were exposed. The resulting sections were polished at a thickness of about 500 μm and were subjected to ultrasonic cleaning. […] The resulting solution was used as a test solution. Then, the sections whose portions other than the test surface had been masked were soaked in the test solution at 37° C. for 9 min per day. This soaking treatment was conducted for 5 days.\nIn addition, a test for liquid permeation through dentinal tubules was conducted. […] A dentin section was interposed between an inlet chamber and an outlet chamber of the above device. Then, the test solution was placed in the inlet chamber to treat the dentin surface. In addition, a Ringer's solution was injected using pressure in the inlet chamber before and after the treatment. By measuring the amount of flow through the outlet chamber, the liquid permeation through dentinal tubules was evaluated.\nThe effect of inhibiting liquid permeation through dentinal tubules of each test solution was determined as follows: first, a difference between the amount of flow of the Ringer's solution before and that after the treatment was determined; and a liquid permeation inhibition rate of the dentinal tubules was then calculated in percent units by using the following equation. […]"}
{"compound": "O.O.O=P([O-])([O-])O.[Ca+2]", "note": "[calcium monohydrogen phosphate dihydrate]", "values": [{"measurement": "ability to occlude dentinal tubules of a tooth", "value": "had an ability to occlude dentinal tubules of a tooth"}]}
